Reference: US7846735B2, “Compositions and methods for lipoprotein uptake assays” (General Electric Company, priority 2006, dated 2010)

Experiments:
[1] = pH dependence of dye fluorescence; format: physicochemical
Excerpt: The assays employ a pH-sensing cyanine dye, which is minimally fluorescent at neutral pH outside the cell, but highly fluorescent in the acidic environment (pKa ˜7.3; excitation peak 650 nm/emission peak 670 nm). In most instances, the lipoproteins or modified lipoproteins are taken up by cell-surface receptors through the process of receptor-mediated endocytosis. Once internalized, lipoproteins are transported to highly acidic vesicles. When labeled with CypHer5E dye, lipoproteins are minimally fluorescent at neutral pH outside the cell, but highly fluorescent in the acidic environment of the uptake vesicle. This translates into high signal-to-noise ratio compared to traditional dyes that are equally fluorescent inside or outside the cell. Additionally, the disclosed methods eliminate washing steps required for removal of excess of labeled lipoprotein in the media at the end of the protocol. […]
CypHer5E dye is 3 to 20 times more fluorescent in the acidic environment of the intracellular vesicles than at neutral pH outside the cell (pKa ˜7.3; excitation peak 650 nm/emission peak 670 nm). CypHer5E dye fluorescence is enhanced by the acidic conditions of lipoprotein-containing intracellular vesicles after receptor-mediated lipoprotein after the CypHer5E-AcLDL is internalized.

[2] = molecular target: T1, scavenger receptor A (SR-A, CD204) (Mus musculus, UniProt P30204); assay: Inhibition of CypHer5E-AcLDL uptake by known SR-A ligands; format: cell-based; conditions: RAW264.7 mouse macrophages, FIG. 7
T1 construct: endogenous in cells; host or cells: RAW264.7 mouse macrophages
T1 sequence (P30204 1-458): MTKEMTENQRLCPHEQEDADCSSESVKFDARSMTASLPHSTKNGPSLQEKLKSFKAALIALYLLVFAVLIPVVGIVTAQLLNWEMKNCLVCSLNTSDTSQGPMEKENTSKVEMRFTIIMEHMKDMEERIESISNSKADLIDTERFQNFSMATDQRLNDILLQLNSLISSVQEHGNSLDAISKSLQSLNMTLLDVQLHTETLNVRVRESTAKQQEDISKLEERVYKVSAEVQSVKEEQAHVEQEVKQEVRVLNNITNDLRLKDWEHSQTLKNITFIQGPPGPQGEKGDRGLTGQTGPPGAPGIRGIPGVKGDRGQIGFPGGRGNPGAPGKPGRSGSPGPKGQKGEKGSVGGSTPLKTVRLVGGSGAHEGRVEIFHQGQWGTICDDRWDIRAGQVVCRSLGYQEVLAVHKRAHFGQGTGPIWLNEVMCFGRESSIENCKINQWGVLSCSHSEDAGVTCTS
Procedure: RAW264.7 Mouse Macrophages, J774A.1 Mouse Macrophages, U-2 OS Human Osteosarcoma Cells were seeded in standard cell culture flasks and cultured in Dulbecco's Modified Eagle Medium (DMEM) with 10% fetal bovine serum (FBS) until about 70% to about 80% confluent. On the day of the assay, the cells were washed twice with serum-free DMEM, and incubated for 30 minutes in cell culture incubator in DMEM containing 1 μM Cell Tracker Green dye. After staining with Cell Tracker Green dye, cells were washed three times with serum-free DMEM, scraped from tissue culture flask, and resuspended in DMEM with 12.5% Fetal Bovine Lipoprotein Deficient Serum (FBLDS) at 250,000 cells/ml.
80 μl of Cell Tracker Green-labeled cells at 250,000 cells/ml were added to each well of ViewPlate 96-well plate in DMEM with 12.5% Fetal Bovine Lipoprotein Deficient Serum (FBLDS). For inhibitor studies, 10 μl of 10-fold stock of the inhibitor in DMEM containing 10% dimethyl sulfoxide (DMSO) were added to each well. 10 μl of DMEM containing 10% DMSO were added for control wells. Cells were pre-incubated for 30 minutes at 37° C. in a cell culture incubator in the presence of the inhibitor before addition of labeled AcLDL. At the end of pre-incubation period, 10 μl of 100 μg/ml CypHer5E-AcLdL solution were added to each well. The incubation continued for another 2 to 18 hours at 37° C. in cell culture incubator before imaging. The Dil AcLDL complex assay was identical to CypHer5E-AcLDL assay except that Dil AcLDL complex was added to cells in place of CypHer5E-AcLDL conjugate.
Following incubation, images of CypHer5E-AcLDL uptake were acquired on IN Cell Analyzer 1000 or 3000 (GE Healthcare) using a 10× or 20× objective and FITC/Cy5 excitation/emission filters. Analysis was performed using Granularity Analysis and Object Intensity Analysis Modules within IN Cell Analyzer system software suite or using Developer™ Image Analysis software.

| pKa [1] | inhibition of pH-sensing cyanine dye conjugate uptake (in words) [2] | Compound |
| --- | --- | --- |
| ~7.3 | – | CC1(C)C(/C=C/C=C/C=C2/Nc3ccc(S(=O)(=O)O)cc3C2(C)CCCCCC(=O)O)=[N+](CCCCS(=O)(=O)[O-])c2ccc(S(=O)(=O)O)cc21 (stereo not shown) [CypHer5E, 2-{[1E,3E,5E)-5-(3-methyl-3-(5-carboxypentyl)-5-sulfo-1,3-dihydro-2H-indol-2-ylidene]-1,3-pentadienyl}-3,3-dimethyl-5-sulfo-1-(4-sulfobutyl)-3H-indolium] |
| – | inhibition | Dextran Sulfate MW 500,000 [Dex SO4] |
| – | inhibition | Polyguanylic acid potassium salt [poly G] |
| – | inhibition | Polyinosinic acid potassium salt [poly I] |
